Laboratory results taken from US10131652B2, “Pyrimidinyloxy benzene derivatives as herbicides” (E. I. DU PONT DE NEMOURS AND COMPANY, priority 2014, dated 2018).
Like-named read-outs stand apart in the source and are kept apart here.

Assays:
Assay in all cases: Test F pre-/postemergence plant response
Assay type in all cases: in vivo
kochia (Kochia scoparia) = details: Bassia scoparia, scale 0 to 100, read-out: Plant response rating, Kochia; for pest or weed control at 31 g/ha: 31 g ai/ha
Excerpt: (§1) Seeds of plant species selected from corn (Zea mays), soybean (Glycine max), velvetleaf (Abutilon theophrasti), lambsquarters (Chenopodium album), wild poinsettia (Euphorbia heterophylla), palmer pigweed (Amaranthus palmeri), waterhemp (common waterhemp, Amaranthus rudis), surinam grass (Brachiaria decumbens), large (Lg) crabgrass (Digitaria sanguinalis), Brazilian crabgrass (Digitaria horizontalis), fall panicum (Panicum dichotomiflorum), giant foxtail (Setaria faberii), green foxtail (Setaria viridis), goosegrass (Eleusine indica), johnsongrass (Sorghum halepense), ragweed (common ragweed, Ambrosia elatior), barnyardgrass (Echinochloa crus-galli), sandbur (southern sandbur, Cenchrus echinatus), arrowleaf sida (Sida rhombifolia), Italian ryegrass (Lolium multiflorum), dayflower (Virginia (VA) dayflower, Commelina virginica), field bindweed (Convolvulus arvensis), cocklebur (common cocklebur, Xanthium strumarium), momingglory (Ipomoea coccinea), nightshade (eastern black nightshade, Solanum ptycanthum), kochia (Kochia scoparia), yellow nutsedge (Cyperus esculentus), and hairy beggarticks (Bidens pilosa), were planted into a silt loam soil and treated preemergence with test chemicals formulated in a non-phytotoxic solvent mixture which included a surfactant.
(§2) At the same time, plants from these crop and weed species and also waterhemp_RES1, (ALS & Triazine resistant common waterhemp, Amaranthus rudis), and waterhemp_RES2, (ALS & HPPD resistant common waterhemp, Amaranthus rudis) were treated with postemergence applications of test chemicals formulated in the same manner. Plants ranged in height from 2 to 18 cm for postemergence treatments (1- to 4-leaf stage).
(§3) Treated plants and controls were maintained in a greenhouse for 14 to 21 days, after which time all species were compared to controls and visually evaluated. Plant response ratings, summarized in Table F, are based on a scale of 0 to 100 where 0 is no effect and 100 is complete control. A dash (-) response means no test result.

[1] = test system: arrowleaf sida (Sida rhombifolia); details: Sida rhombifolia, scale 0 to 100, read-out: Plant response rating, Arrowleaf Sida
Excerpt: as §1, §2, §3

[2] = test system: nightshade (eastern black nightshade, Solanum ptycanthum); details: Solanum, pre-emergence, scale 0 to 100, read-out: Plant response rating, Nightshade
Excerpt: as §1, §2, §3

[3] = test system: fall panicum (Panicum dichotomiflorum); details: Panicum dichotomiflorum, scale 0 to 100, read-out: Plant response rating, Panicum, Fall
Excerpt: as §1, §2, §3

[4] = test system: large (Lg) crabgrass (Digitaria sanguinalis); details: Digitaria sanguinalis, pre-emergence, scale 0 to 100, read-out: Plant response rating, Crabgrass, Large
Excerpt: as §1, §2, §3

corn (Zea mays) = details: Zea mays, scale 0 to 100
Excerpt: as §1, §2, §3

[5] = test system: palmer pigweed (Amaranthus palmeri); details: Amaranthus palmeri, scale 0 to 100, read-out: Plant response rating, Pigweed, Palmer
Excerpt: as §1, §2, §3

[6] = test system: sandbur (southern sandbur, Cenchrus echinatus); details: Cenchrus echinatus, scale 0 to 100, read-out: Plant response rating, Sandbur
Excerpt: as §1, §2, §3

[7] = test system: wild poinsettia (Euphorbia heterophylla); details: Euphorbia heterophylla, scale 0 to 100, read-out: Plant response rating, Poinsettia, Wild
Excerpt: as §1, §2, §3

[8] = test system: goosegrass (Eleusine indica); details: Eleusine indica, pre-emergence, scale 0 to 100, read-out: Plant response rating, Goosegrass
Excerpt: as §1, §2, §3

[9] = test system: Italian ryegrass (Lolium multiflorum); details: Lolium multiflorum, scale 0 to 100, read-out: Plant response rating, Ryegrass, Italian; for pest or weed control at 31 g/ha: 31 g ai/ha
Excerpt: as §1, §2, §3

soybean (Glycine max) = details: Glycine max, scale 0 to 100, read-out: Plant response rating, Soybean
Excerpt: as §1, §2, §3

[10] = test system: Brazilian crabgrass (Digitaria horizontalis); details: Digitaria horizontalis, scale 0 to 100, read-out: Plant response rating, Crabgrass, Brazil
Excerpt: as §1, §2, §3

[11] = test system: green foxtail (Setaria viridis); details: Setaria viridis, pre-emergence, Preemergence, scale 0 to 100, read-out: Plant response rating, Foxtail, Green
Excerpt: as §1, §2, §3

[12] = test system: lambsquarters (Chenopodium album); details: Chenopodium album, pre-emergence, Preemergence, scale 0 to 100, read-out: Plant response rating, Lambsquarters
Excerpt: as §1, §2, §3

[13] = test system: surinam grass (Brachiaria decumbens); details: Urochloa decumbens, pre-emergence, scale 0 to 100, read-out: Plant response rating, Surinam Grass
Excerpt: as §1, §2, §3

[14] = post-emergence, 62 g ai/ha, Postemergence
[15] = post-emergence, 31 g ai/ha Postemergence
[16] = post-emergence, 62 g ai/ha Postemergence
[17] = pre-emergence, 31 g ai/ha Preemergence
[18] = pre-emergence, 62 g ai/ha Preemergence

Compound: Fc1cccc(Oc2ncc(Cl)cn2)c1-c1cc(C(F)F)on1 [Compound 55, 5-chloro-2-[2-[5-(difluoromethyl)-3-isoxazolyl]-3-fluorophenoxy]pyrimidine]
- pest or weed control at 31 g/ha (kochia (Kochia scoparia); post-emergence, Postemergence): 95%
- pest or weed control at 62 g/ha (kochia (Kochia scoparia); [14]): 98%
- pest or weed control at 31 g/ha (kochia (Kochia scoparia); pre-emergence, Preemergence): 100%
- pest or weed control at 62 g/ha (kochia (Kochia scoparia); pre-emergence, Preemergence): 100%
- pest or weed control at 31 g/ha [1, 15]: 95%
- pest or weed control at 62 g/ha [1, 16]: 100%
- pest or weed control at 31 g/ha [1, 17]: 98%
- pest or weed control at 62 g/ha [1, 18]: 100%
- pest or weed control at 31 g/ha ([2]; 31 g ai/ha Preemergence): 98%
- pest or weed control at 62 g/ha ([2]; Preemergence): 98%
- pest or weed control at 31 g/ha [3, 15]: 40%
- pest or weed control at 62 g/ha [3, 16]: 30%
- pest or weed control at 31 g/ha [3, 17]: 90%
- pest or weed control at 62 g/ha ([3]; pre-emergence, Preemergence): 100%
- pest or weed control at 31 g/ha ([4]; 31 g ai/ha Preemergence): 98%
- pest or weed control at 62 g/ha ([4]; 62 g ai/ha Preemergence): 100%
- Corn plant response rating (crop injury, 0 = no effect, 100 = complete kill) at 31 g/ha (corn (Zea mays); [15]): 15%
- Corn plant response rating (crop injury, 0 = no effect, 100 = complete kill) at 62 g/ha (corn (Zea mays); [16]): 20%
- Corn plant response rating (crop injury, 0 = no effect, 100 = complete kill) at 31 g/ha (corn (Zea mays); [17]): 0%
- Corn plant response rating (crop injury, 0 = no effect, 100 = complete kill) at 62 g/ha (corn (Zea mays); [18]): 40%
- pest or weed control at 31 g/ha [5, 15]: 98%
- pest or weed control at 62 g/ha [5, 16]: 98%
- pest or weed control at 31 g/ha [5, 17]: 75%
- pest or weed control at 62 g/ha ([5]; pre-emergence, Preemergence): 100%
- pest or weed control at 31 g/ha [6, 15]: 25%
- pest or weed control at 62 g/ha [6, 16]: 15%
- pest or weed control at 31 g/ha [6, 17]: 0%
- pest or weed control at 62 g/ha ([6]; pre-emergence, Preemergence): 0%
- pest or weed control at 31 g/ha [7, 15]: 35%
- pest or weed control at 62 g/ha [7, 16]: 45%
- pest or weed control at 31 g/ha [7, 17]: 0%
- pest or weed control at 62 g/ha ([7]; pre-emergence, Preemergence): 30%
- pest or weed control at 31 g/ha ([8]; 31 g ai/ha Preemergence): 5%
- pest or weed control at 62 g/ha ([8]; Preemergence): 50%
- pest or weed control at 31 g/ha ([9]; post-emergence, Postemergence): 0%
- pest or weed control at 62 g/ha [9, 14]: 10%
- pest or weed control at 31 g/ha ([9]; pre-emergence, Preemergence): 0%
- pest or weed control at 62 g/ha ([9]; pre-emergence, Preemergence): 30%
- plant injury at 31 g/ha (soybean (Glycine max); [15]): 70%
- plant injury at 62 g/ha (soybean (Glycine max); [16]): 95%
- plant injury at 31 g/ha (soybean (Glycine max); [17]): 40%
- plant injury at 62 g/ha (soybean (Glycine max); pre-emergence, Preemergence): 50%
- pest or weed control at 31 g/ha [10, 15]: 40%
- pest or weed control at 62 g/ha [10, 16]: 30%
- pest or weed control at 31 g/ha [10, 17]: 75%
- pest or weed control at 62 g/ha [10, 18]: 100%
- pest or weed control at 31 g/ha ([11]; 31 g ai/ha): 20%
- pest or weed control at 62 g/ha [11]: 70%
- pest or weed control at 31 g/ha ([12]; 31 g ai/ha): 100%
- pest or weed control at 62 g/ha [12]: 100%
- pest or weed control at 31 g/ha ([13]; 31 g ai/ha Preemergence): 0%
- pest or weed control at 62 g/ha ([13]; Preemergence): 10%
